Reference: PMC6270171, “In Vitro and In Vivo Antiangiogenic Activity of Caged Polyprenylated Xanthones Isolated from Garcinia hanburyi Hook. f” (Molecules, 2013)
Values joined by “and” are separate entries in the source; they are usually repeats but may differ in a detail not shown here. Equal values may be shown once. Read-outs that look alike come from different tables or passages of the source.

Columns and labels:
[1] = tested on: HeLa; experiment: MTT cytotoxicity assay, HeLa; type: cell-based; conditions: Homo sapiens, read-out: IC50 HeLa
Protocol: (§1) The xanthones 1–11 were tested for cytotoxicity against HeLa, A549, HCT-116, and HepG-2 human cancer cell lines and inhibition on the proliferation of the HUVEC cell line by using the MTT assay according to the described protocols.

[2] = tested on: A549; experiment: MTT cytotoxicity assay, A549; type: cell-based; conditions: Homo sapiens
Protocol: as §1

[3] = tested on: HCT-116; experiment: MTT cytotoxicity assay, HCT-116; type: cell-based; conditions: Homo sapiens
Protocol: as §1

[4] = tested on: HepG-2; experiment: MTT cytotoxicity assay, HepG-2; type: cell-based; conditions: Homo sapiens
Protocol: as §1

[5] = tested on: HUVEC cell line; experiment: MTT assay, inhibition of proliferation of HUVEC cell line; type: cell-based; conditions: Homo sapiens, read-out: IC50 HUVEC
Protocol: as §1

[6] = tested on: zebrafish embryos Tg(flk1:EGFP); experiment: Antiangiogenic activity assay on blood vessel formation in zebrafish embryos; type: in vivo, zebrafish (Danio rerio); conditions: for Antiangiogenic activity to zebrafish embryos: concentrations varying from 1 μM to 16 μM; for Concentration with inhibitory effect on ISV formation (Figure 2): zebrafish embryos, 24 h, effects of 3, 7, 9 comparable to GA
Protocol: (§2) A transgenic zebrafish line, Tg(flk1:EGFP), with the endothelial- specific flk1 promoter directing enhanced green fluorescent protein (EGFP) expression in all endothelial cells of the vasculature was used. Adult zebrafish were maintained at 28.5 °C in a recirculating aquaculture system. Zebrafish embryos were generated by natural pair-wise mating, collected in the morning and raised at 28.5 °C in embryo water (0.2 g/L of Instant Ocean Salt in distilled water). At 6 h post-fertilization (hpf), the embryos were sorted for viability and developmental stage (shield stage). The embryos were firstly placed in 24-well plates in 1 mL of embryo water with eight embryos per well. Then, the xanthones, at various concentrations, were added to embryo water of each well from the shield stage (about 6 h). Because the fish embryo receives nourishment from an attached yolk ball for the duration of the experiment, no additional maintenance was required during the duration of the experiments. After treatment with the drugs for 24 h, the embryos were anesthetized with 0.05% 2-phenoxyethanol in embryo water. One to three embryos were placed on carry sheet glass and each embryo was examined for the presence of ectopic vessels in the subintestinal vessel plexus (SIV) as an indication of antiangiogenic effect. Photographs were taken under a fluorescence microscope.

[7] = tested on: zebrafish embryos; experiment: Death rates of treated zebrafish embryos; type: in vivo, zebrafish (Danio rerio); conditions: for Death Rate: eight embryos per well, control 0; for Concentration that caused the death of all zebrafish embryos: highest concentration tested
Protocol: as §2

[8] = tested on: zebrafish embryos; experiment: Heart rates of treated zebrafish embryos; type: in vivo, zebrafish (Danio rerio)
[9] = tested on: HUVEC; experiment: HUVEC wound migration assay; type: cell-based, human; conditions: 0.5 μM, 24 h
Protocol: The wound migration assay was performed as previously described. HUVECs were seeded at a plating density of 2 × 10^5 per well in 6-well plates which had been coated with 1% gelatin, cells grown in DMEM medium with 10% FBS overnight. After reaching 100% confluence, the cells were then gently scraped with a plastic tip to produce a wound area. After wounding cells were incubated with fresh DMEM medium with xanthones 1, 3, 7 and 9 at a concentration of 0.5 μM, the migration and cell movement throughout the wound area was examined after 24 h.

[10] = MTT assay, 50% inhibition of cell growth
[11] = A549, MTT assay, 50% inhibition of cell growth, read-out: IC50 A549
[12] = HCT-116, MTT assay, 50% inhibition of cell growth, read-out: IC50 HCT-116
[13] = HepG2, MTT assay, 50% inhibition of cell growth, read-out: IC50 HepG-2
[14] = Tg(flk1:EGFP), zebrafish, in vivo, 24 h, 2 μM
[15] = Tg(flk1:EGFP), zebrafish, in vivo, 24 h, 4 μM
[16] = 1 μM, zebrafish embryos, control 21 per 10 s
[17] = 2 μM, zebrafish embryos, control 21 per 10 s
[18] = 4 μM, zebrafish embryos, control 21 per 10 s
[19] = HCT-116, read-out: IC50 HCT-116
[20] = 8 μM, zebrafish embryos, control 21 per 10 s
[21] = Tg(flk1:EGFP), zebrafish, in vivo, 24 h, 8 μM

Row | Structure (SMILES) | IC50 [1, 10] | IC50 [2, 11] | IC50 [3, 12] | IC50 [4, 13] | IC50 [5, 10] | Death Rate ([7]; 1 μM) | Death Rate ([7]; 2 μM) | Death Rate ([7]; 4 μM) | Heart Rate [8, 14] | Heart Rate [8, 15] | Heart Rate [8, 16] | Heart Rate [8, 17] | Heart Rate [8, 18] | IC50 [1] | IC50 ([2]; A549, read-out: IC50 A549) | IC50 [3, 19] | IC50 ([4]; HepG2, read-out: IC50 HepG-2) | IC50 [5] | Death Rate ([7]; 8 μM) | Heart Rate [8, 21] | other results
1 | CC(C)=CCC[C@]1(C)C=Cc2c(O)c3c(c(CC=C(C)C)c2O1)O[C@]12C(=C[C@@H]4C[C@H]1C(C)(C)O[C@@]2(C/C=C(/C)C(=O)O)C4=O)C3=O [Xanthone 1, gambogic acid] | 1.59 µM | 1.55 µM | 0.64 µM | 0.78 µM | 0.72 µM | 0 | 1/8 | 8/8 | 3 per 10 s | 0 per 10 s |  |  |  |  |  |  |  |  |  |  | Antiangiogenic activity to zebrafish embryos [6]: displayed antiangiogenic activity; Concentration with inhibitory effect on ISV formation (Figure 2) [6]: 1 µM and 2 µM; Concentration that caused the death of all zebrafish embryos [7]: 4 µM; Heart Rate ([8]; Tg(flk1:EGFP), zebrafish, in vivo, 24 h, 1 μM): 8 per 10 s; Inhibition of the migration of HUVEC [9]: remarkable inhibition
2 | CC(C)=CCC/C(C)=C/Cc1c(O)c(CC=C(C)C)c2c(c1O)C(=O)C1=C[C@@H]3C[C@H]4C(C)(C)O[C@@](C/C=C(/C)C(=O)O)(C3=O)[C@@]14O2 [Xanthone 2, gambogenic acid] | 11.5 µM | 4.76 µM | 4.76 µM | 6.35 µM | 4.12 µM | 0 | 0 | 8/8 |  |  | 21 per 10 s | 18 per 10 s | 0 per 10 s |  |  |  |  |  |  |  | 
3 | CC(C)=CCc1c2c(c(O)c3c1O[C@]14C(=C[C@@H]5C[C@H]1C(C)(C)O[C@@]4(C/C=C(/C)C(=O)O)C5=O)C3=O)C=CC(C)(C)O2 [Xanthone 3, morellic acid] |  |  |  |  |  |  | 0 | 0 |  |  |  | 8 per 10 s | 6 per 10 s | 13.8 µM | 14.2 µM | 8.89 µM | 13.3 µM | 6.14 µM | 8/8 |  | Antiangiogenic activity to zebrafish embryos [6]: displayed antiangiogenic activity; Concentration with inhibitory effect on ISV formation (Figure 2) [6]: 4 µM; Concentration that caused the death of all zebrafish embryos [7]: 8 µM; Heart Rate [8, 20]: 0 per 10 s; Inhibition of the migration of HUVEC [9]: remarkable inhibition
4 | CC(C)=CCC/C(C)=C/Cc1c(O)c2c(c3c1O[C@@H](C(C)(C)O)C3)O[C@]13C(=C[C@@H]4C[C@H]1C(C)(C)O[C@@]3(C/C=C(/C)C(=O)O)C4=O)C2=O [Xanthone 4, gambogenific acid] | 7.58 µM | 11.3 µM | 4.49 µM | 10.2 µM | 2.48 µM |  | 0 | 0 | 21 per 10 s | 17 per 10 s |  |  |  |  |  |  |  |  | 0 | 13 per 10 s | 
5 | CC(C)=CCc1c2c(c(O)c3c1O[C@]14C(=C[C@@H]5C[C@H]1C(C)(C)O[C@@]4(C/C=C(/C)C=O)C5=O)C3=O)C=CC(C)(C)O2 [Xanthone 5, morellin isomers] | 5.33 µM | 6.43 µM | 2.76 µM | 5.97 µM | 2.39 µM |  | 0 | 0 | 13 per 10 s | 10 per 10 s |  |  |  |  |  |  |  |  | 8/8 | 8 per 10 s | 
6 | CC(C)=CCC/C(C)=C/Cc1c(O)c(CC=C(C)C)c2c(c1O)C(=O)C1=C[C@@H]3C[C@H]4C(C)(C)O[C@@](C/C=C(\C)C=O)(C3=O)[C@@]14O2 [Xanthone 6, isogambogenin] | 4.07 µM | 4.88 µM | 1.47 µM | 2.44 µM | 2.12 µM |  |  |  |  |  |  |  |  |  |  |  |  |  | 0 | 17 per 10 s | Death Rate ([7]; 16 μM): 1/8; Death Rate ([7]; 32 μM): 4/8; Heart Rate ([8]; Tg(flk1:EGFP), zebrafish, in vivo, 24 h, 16 μM): 14 per 10 s; Heart Rate ([8]; Tg(flk1:EGFP), zebrafish, in vivo, 24 h, 32 μM): 8 per 10 s
7 | CC(C)=CCCC1(C)C=Cc2c(O)c3c(c(CC=C(C)C)c2O1)O[C@]12C(=C[C@@H]4C[C@H]1C(C)(C)O[C@@]2(C/C=C(\C)C(=O)O)C4=O)C3=O (stereo partly drawn) [Xanthone 8, isogambogic acid] | 4.77 µM | 2.86 µM | 1.59 µM | 6.37 µM | 0.91 µM |  | 0 | 1/8 | 17 per 10 s | 13 per 10 s |  |  |  |  |  |  |  |  | 6/8 | 6 per 10 s | 
8 | CC(C)=CCc1c2c(c(O)c3c1O[C@]14C(=C[C@@H]5C[C@H]1C(C)(C)O[C@@]4(CC=C(C)C)C5=O)C3=O)C=CC(C)(C)O2 [Xanthone 10, desoxymorellin] |  |  |  |  |  | 0 | 0 | 0 |  |  | 20 per 10 s | 17 per 10 s | 16 per 10 s | 2.6 µM | 2.05 µM | 1.2 µM | 1 µM | 0.9 µM | 0 |  | Heart Rate [8, 20]: 16 per 10 s
9 | CC(C)=CCC/C(C)=C/Cc1c(O)c(CC=C(C)C)c2c(c1O)C(=O)C1=C[C@@H]3C[C@H]4C(C)(C)O[C@@](CC=C(C)C)(C3=O)[C@@]14O2 [Xanthone 11, desoxygambogenin] |  |  |  |  |  | 0 | 0 | 0 |  |  | 21 per 10 s | 21 per 10 s | 21 per 10 s | 2.95 µM | 1.8 µM | 1.35 µM | 1.15 µM | 1.6 µM | 0 |  | Heart Rate [8, 20]: 20 per 10 s
